Experimental data from the NIST ThermoML archive (doi:10.1021/je0400052).
± gives the expanded uncertainty stated by the source.

Key:
[1] = refractive index (Na D-line) (dimensionless); settings: 101.33 kPa, Liquid
[2] = 101.33 kPa, Liquid

| SMILES | refractive index ([1]; 303.15 K) | refractive index ([1]; 313.15 K) | mass density ([2]; 303.15 K) [kg/m3] | viscosity ([2]; 303.15 K) [mPa·s] | mass density ([2]; 313.15 K) [kg/m3] | viscosity ([2]; 313.15 K) [mPa·s] |
| --- | --- | --- | --- | --- | --- | --- |
| Cc1ccc(C)cc1 [1,4-dimethylbenzene] | 1.4911 ± 0.0025 | 1.4902 ± 0.0025 | 851.9 ± 1.8 | 0.566 ± 0.016 | 844 ± 2 | 0.517 ± 0.015 |
| CCOC(=O)c1ccccc1 [ethyl benzoate] | 1.5009 ± 0.0025 | 1.4997 ± 0.0025 | 1037.4 ± 2.3 | 1.748 ± 0.042 | 1028.5 ± 2.4 | 1.438 ± 0.035 |
| CCOC=O [ethyl methanoate] | 1.3552 ± 0.0032 | 1.3549 ± 0.0032 | 908.1 ± 2.1 | 0.366 ± 0.011 | 894.9 ± 2.2 | 0.339 ± 0.011 |
| CCc1ccccc1 [ethylbenzene] | 1.491 ± 0.0025 | 1.4891 ± 0.0025 | 857.6 ± 1.8 | 0.597 ± 0.016 | 849.2 ± 2 | 0.538 ± 0.015 |
